Measured values published in patent US9439414B2, “Sperm diluent solution and method for artificial insemination using same” (HIROSHIMA UNIVERSITY, priority 2009, dated 2016).

Experiments:
pig sperm [1] = test: Sperm motility by motility analyzer (CASA); format: cell-based; conditions: EGTA 0, 3, 6, 9 mM added to Modena solution (6.3 mM EDTA); 1, 3 or 6 hours
Method: Media having concentrations of EDTA of 0 mM, 3 mM, 6.3 mM and 12 mM were prepared. The 0-mM-EDTA medium and the 3-mM-EDTA medium were prepared by removing EDTA-2Na from Modena solution and adjusting the EDTA concentration to 0 mM and 3 mM, respectively. As the 6.3-mM-EDTA medium, Modena solution was used as it is. Further, the 12-mM-EDTA medium was prepared by adding EDTA-2Na to Modena solution to attain an EDTA concentration of 12 mM.
To each medium, frozen sperm were added after thawing as in Experimental Example 1, and the sperm were cultured. The culturing time was 1 hour, 3 hours or 6 hours.
After the culture, the sperm motility was calculated using a motility analyzer (computer-assisted sperm motility analysis (CASA) system). On a plate prewarmed to 38° C., 5 μl of the medium after the culture was placed, and the ratio of moving sperm was analyzed using a computer.
0-mM-EGTA medium, 3-mM-EGTA medium, 6-mM-EGTA medium and 9-mM-EGTA medium were prepared. As the 0-mM-EGTA medium, Modena solution was used as it is. Further, the 3-mM-EGTA medium, 6-mM-EGTA medium and 9-mM-EGTA medium were prepared by adding EGTA to Modena solution to attain EGTA concentrations of 3 mM, 6 mM and 9 mM, respectively, in the medium. Since addition of EGTA results in more acidic pH of the medium, NaOH was added to the medium to adjust pH to 7.0 to 7.1. […]

pig sperm [2] = test: Sperm acrosomal damage rate (FITC-peanut lectin staining); format: cell-based; conditions: EGTA 0, 3, 6, 9 mM in Modena solution
Method: 0-mM-EGTA medium, 3-mM-EGTA medium, 6-mM-EGTA medium and 9-mM-EGTA medium were prepared. As the 0-mM-EGTA medium, Modena solution was used as it is. Further, the 3-mM-EGTA medium, 6-mM-EGTA medium and 9-mM-EGTA medium were prepared by adding EGTA to Modena solution to attain EGTA concentrations of 3 mM, 6 mM and 9 mM, respectively, in the medium. Since addition of EGTA results in more acidic pH of the medium, NaOH was added to the medium to adjust pH to 7.0 to 7.1.
To each medium, frozen sperm were added after thawing as in Experimental Example 1, and the sperm was cultured. The culturing time was 1 hour, 3 hours or 6 hours.
The measurement of the sperm motility and detection of phosphorylation of tyrosine residues of the sperm proteins were carried out in the same manner as described above. The measurement of the sperm acrosomal damage rate was carried out as follows. On a slide glass, 5 μl of the medium was smeared, followed by air drying and 10 minutes of fixation with 99% methanol. After drying the methanol, marking was done with a liquid pen. FITC-peanut lectin was added to the smeared sperm (about 30 μl per sample), followed by 30 minutes of incubation at 37° C. in a moist atmosphere. Thereafter, the sperm were washed with PBS (5 minutes×3 times) and embedded in DAPI (VECTOR, VECTASHIELD with DAPI, H-1200) and then in manicure, followed by observation of the sperm.

mother pigs and piglets = test: Health of mother pigs and piglets after artificial insemination with the cortisol-containing sperm diluent; format: in vivo, pig; conditions: 5 μg cortisol injected to the uterus
Method: Although the above adrenocortical hormone (a steroid hormone such as cortisol) is usually injected at a dose of 5 to 50 mg per individual for therapy of livestock, only 5 μg was injected to the uterus in the artificial insemination of the present Example. Thus, since this dose is about 1,000 to 10,000 times smaller than the dose in the cases of therapeutic use, it is thought that the meat of the mother pig and the fetuses in the uterus are not affected.

O=C(O)CN(CCOCCOCCN(CC(=O)O)CC(=O)O)CC(=O)O [EGTA, ethylene glycol Bis(2-aminoethyl)-N,N,N′,N′-tetraacetic acid]
sperm motility (FIG. 3) (pig sperm [1]): high | sperm acrosomal damage rate (FIG. 5) (pig sperm [2]): low

C[C@]12CCC(=O)C=C1CC[C@@H]1[C@@H]2[C@@H](O)C[C@@]2(C)[C@H]1CC[C@]2(O)C(=O)CO [cortisol]
deformed piglets after the delivery (mother pigs and piglets): no deformed piglet was found
